Measured values from patent publication EP0014434A1, “Right-turning basic derivative of 9,10-ethanoanthracene, process for its preparation and pharmaceutical preparations containing it” (priority 1979, dated 1980).

What was measured:
[1] = tested on: durch 2 mg/kg sc. Reserpin induzierten Hypothermie; assay: Antagonism of reserpine-induced hypothermia; format: in vivo, männlichen Mäusen; conditions: male mice, Hydrochlorid compared with the corresponding Racemat
Experimental: (§1) Das S-(+)-o-[Methylamino)methyl]-9,10-äthanoan- thracen-9(10H)-äthanol und seine Säureadditionssalze besitzen wertvolle pharmakologische Eigenschaften. Vor allem zeigen sie sehr starke Wirkungen in Tests, die für Antidepressiva charakteristisch sind. Eine deutliche Antagonisierung der durch 2 mg/kg sc. Reserpin induzierten Hypothermie an männlichen Mäusen [Askew, Life Sci. 10, 725 (1963),und Benz und Waser, Dissertation 1971, Pharmakolog. […] Die durch 2 mg/kg sc. Reserpin induzierte Ptosis an männlichen Ratten [Rubin et al, J. Pharmacol. Exp. Therap.

[2] = tested on: durch 2 mg/kg sc. Reserpin induzierte Ptosis; assay: Antagonism of reserpine-induced ptosis; format: in vivo, männlichen Ratten
Experimental: as §1

[3] = tested on: Noradrenalin- Aufnahme ins Rattenherz; assay: Inhibition of noradrenaline uptake into rat heart (method of Maitre, Staehelin and Bein); format: in vivo, Ratte; conditions: po, Formel I tested as Hydrochlorid, read-out: ED50 Hemmung der Noradrenalin- Aufnahme ins Rattenherz
Experimental: Neurobiochemisch zeigt das Hydrochlorid der Verbindung der Formel I eine starke Hemmung der Noradrenalin- Aufnahme ins Rattenherz gemäss der Methode von L. Maitre, M. Staehelin und H. Bein, Biochem. Pharmacol. 20, 2169 (1971) mit einer ED50 von etwa 0,3 mg/kg p.o., während die ED50 des entsprechenden Racemats bei etwa 1,5 mg/kg p.o. liegt, wie auch eine starke Hemmung des Noradrenalindepletierenden Effektes von H 77/77 (3-Hydroxy-4,a-dimethyl- phenäthylamin) im Rattenhirn als indirekte Anzeige der Noradrenalin-Aufnahme-Hemmung [A. Carlsson, H. Corrodi, K. Fuxe und T. Hoefkelt, Europ. J. Pharmacol. 5, 367 (1969)] mit einer ED50 von etwa 2 mg/kg p.o., gegenüber einer ED50 von etwa 10 mg/kg p.o. des entsprechenden Racemats. Die endogenen Konzentrationen von Noradrenalin und von Dopamin im Rattenhirn, gemessen nach P. Waldmeier, de Herdt und L. Maitre [Chir. Chem. 20, 81, (1974)] werden weder vom Hydrochlorid der Verbindung der Formel I in Dosen bis 100 mg/kg bzw. bis 30 mg/kg p.o., noch vom entsprechenden Racemat in Dosen bis 10 mg/kg bzw. bis 100 mg/kg beeinflusst.

[4] = tested on: Noradrenalindepletierenden Effektes von H 77/77 (3-Hydroxy-4,a-dimethyl- phenäthylamin) im Rattenhirn; assay: Inhibition of the noradrenaline-depleting effect of H 77/77 in rat brain (indirect measure of noradrenaline uptake inhibition); format: in vivo, Ratte; conditions: po, Formel I tested as Hydrochlorid, read-out: ED50 Hemmung des Noradrenalindepletierenden Effektes von H 77/77 im Rattenhirn
[5] = tested on: endogenen Konzentrationen von Noradrenalin im Rattenhirn; assay: Endogenous noradrenaline concentration in rat brain; format: in vivo, Ratte; conditions: no influence up to this dose, p.o. for Formel I (Hydrochlorid)
[6] = tested on: endogenen Konzentrationen von Dopamin im Rattenhirn; assay: Endogenous dopamine concentration in rat brain; format: in vivo, Ratte; conditions: no influence up to this dose, p.o. for Formel I (Hydrochlorid)
Histamin-Toxizität = assay: Antagonism of histamine toxicity; format: in vivo, Meerschweinchen; conditions: guinea pig; equal doses of Formel I (tested as Hydrochlorid) and Racemat
Text: (§2) Therap. 125, 28-34 (1959)], während bei der Antagonisierung der durch Tetrabenazin induzierten Katalepsie der Ratte nach oraler Verabreichung, und bei der Potenzierung der durch G 29 505 [2-(4-Allyl-2-methoxyphenoxy)-N,N-diäthyl-acetamid] bewirkten Narkose der Maus [W. Theobald und R. Domenjoz, Arzneimittelforsch.

[7] = tested on: exploratorischen Aktivität der Maus; assay: Exploratory activity; format: in vivo; conditions: mouse; equal doses of Formel I (tested as Hydrochlorid) and Racemat
[8] = tested on: durch Fuss-Schock induzierten Kampfreaktion der Maus; assay: Foot-shock induced fighting reaction; format: in vivo; conditions: mouse; equal doses of Formel I (tested as Hydrochlorid) and Racemat
Text: as §2

[9] = tested on: durch Tetrabenazin induzierten Katalepsie der Ratte; assay: Antagonism of tetrabenazine-induced catalepsy; format: in vivo; conditions: rat; oral administration; Hydrochlorid compared with Racemat
Text: as §2

[10] = tested on: durch G 29 505 [2-(4-Allyl-2-methoxyphenoxy)-N,N-diäthyl-acetamid] bewirkten Narkose der Maus; assay: Potentiation of G 29 505-induced narcosis; format: in vivo; conditions: mouse; intraperitoneal administration; Hydrochlorid compared with Racemat
Text: as §2

Acute toxicity = format: in vivo
[11] = tested on: isolierten rechten Vorhof; set-up: species or system Meerschweinchen

| SMILES | Antagonisierung der Reserpin induzierten Hypothermie, Vergleich mit Racemat [1] | Reserpin induzierte Ptosis ([2]; male rats, 0,3 mg/kg p.o. of the Hydrochlorid) | Reserpin induzierte Ptosis ([2]; male rats, O,1 mg/kg p.o. of the Hydrochlorid) | ED50 [3] [mg/kg] | ED50 [4] [mg/kg] | Dosen, bis zu denen die endogene Konzentration von Noradrenalin im Rattenhirn nicht beeinflusst wird [5] [mg/kg] | Dosen, bis zu denen die endogene Konzentration von Dopamin im Rattenhirn nicht beeinflusst wird [6] [mg/kg] | Antagonisierung der Histamin-Toxizität, Vergleich mit Racemat (Histamin-Toxizität) | exploratorische Aktivität, Vergleich mit Racemat [7] | durch Fuss-Schock induzierte Kampfreaktion, Vergleich mit Racemat [8] | Antagonisierung der durch Tetrabenazin induzierten Katalepsie, Vergleich mit Racemat [9] | Potenzierung der durch G 29 505 bewirkten Narkose, Vergleich mit Racemat [10] | akute Toxizität, Vergleich mit Racemat (Acute toxicity; intravenous administration) | akute Toxizität, Vergleich mit Racemat (Acute toxicity; oral administration) | negativ chronotrope Wirkung, Vergleich mit Racemat [11] | Dosierung, die die Reserpin induzierte Ptosis völlig aufhebt ([2]; male rats, relative to 0,3 mg/kg p.o. of the Hydrochlorid of Formel I) |
| --- | --- | --- | --- | --- | --- | --- | --- | --- | --- | --- | --- | --- | --- | --- | --- | --- |
| CNC[C@@H](O)CC12CCC(c3ccccc31)c1ccccc12 [Verbindung der Formel I, S-(+)-a-[(Methylamino)methyl]-9,10-äthanoanthracen-9(10H)-äthanol] | stärker als die Wirkung von mehrfachen Dosen des entsprechenden Racemats | aufgehoben | deutlich vermindert | ~0.3 | ~2 | ≤ 100 | ≤ 30 | ungefähr dieselben Wirkungen | ungefähr dieselben Wirkungen | ungefähr dieselben Wirkungen | in ungefähr der halben Dosierung gleich wirksam | in ungefähr der halben Dosierung gleich wirksam | ungefähr gleich | ungefähr gleich | schwächer | – |
| CNCC(O)CC12CCC(c3ccccc31)c1ccccc12 (racemic) [Racemat, a-[(Methylamino)methyl]-9,10-äthanoanthracen-9(10H)-äthanol, reference compound] | – | – | – | ~1.5 | ~10 | ≤ 10 | ≤ 100 | – | – | – | – | – | – | – | – | erheblich höheren Dosierung |
